Data on one molecule can be found in US12472166B2, “Inhibition of mycobacterial type VII secretion” (priority 2019, dated 2025).

Test [1] deals with M. tuberculosis. The test can be described thus: microbe, parasite or virus in culture. The class given is cell-based.
Test [2] deals with ESX-5 dependent secretion. The class given is cell-based.
Test [3] has as its system M. marinum. The class given is cell-based.
The subject of test [4] is PE_PGRS and EsxN (ESX-5 dependent secretion). The class given is cell-based.
Test [5] has as its system EsxA (ESX-1 dependent secretion). In kind it is cell-based.
Test [6] has as its system M. tuberculosis H37Rv WT. The test can be described thus: THP-1 macrophage infection study, CFU counting. In kind it is cell-based, Mycobacterium tuberculosis. To be noted: THP-1 macrophages, MOI 1, day 5.
Test [7] deals with M. avium. The test can be described thus: Cell viability assay (REMA), susceptibility of bacterial cultures. The class given is cell-based. The following applies: tested up to 80 μM.
The subject of test [8] is M. interjectum. Described as above. The class given is cell-based. To be noted: tested up to 80 μM.
In test [9] the test system is M. kansasii. The description is as above. The following applies: tested up to 80 μM. In kind it is cell-based.
In test [10] the test system is M. bovis (BCG). In kind it is cell-based.
Test [11] has as its system fast-growing mycobacteria. The test can be described thus: Cell viability assay (REMA), susceptibility of bacterial cultures. To be noted: up to 80 μM. In kind it is cell-based.
Test [12] deals with Escherichia coli. The description is as above. In kind it is cell-based. The following applies: highest tested amount (80 μM).
The test system of test [13] is Bacillus subtilis. Described as above. To be noted: highest tested amount (80 μM). In kind it is cell-based.
Test [14] concerns M. marinum overexpressing ethA. The class given is cell-based.
The test system of test [15] is M. smegmatis overexpressing ethA. The class given is cell-based.

`COc1ccc(-c2nsc(SCC(=O)NC3CCCC3)n2)cc1` [Compound I-12]: the IC50 in test [1] (Mycobacterium tuberculosis, 168 h, read-out: IC50 (μM) M.tb/REMA) is 0.535 µM. The IC90 in test [1] (Mycobacterium tuberculosis, read-out: IC90 (μM) M.tb/REMA) stood at 1.25 µM. The “susceptibility (REMA)” value in test [1] (tested up to 80 μM) is recorded as “susceptible”; in test [3], “susceptible”; in test [7], “resistant”; in test [8], “resistant”; in test [9], “susceptible”; in test [10] it was “susceptible”. Also, the “susceptibility (REMA)” value in test [11], in test [12] and in test [13] was “resistant” throughout. Besides, in test [2], the “ESX-5 activity, % of the DMSO treated control” value was 27%. In [3], the “increase of MIC towards M. marinum when mspA was over-produced” value was 2 fold. Moreover, the “more compound required to significantly reduce viability when mspA was over-produced” value in test [3] is listed as 4 fold. For the same molecule, the “reduction in bacterial viability (REMA)” value in test [3] stood at 77%. For the same molecule, in test [4], the “concentration at which reduction of ESX-5 substrates EsxN and PE_PGRS proteins was observed” value was determined as 10 µM. For the same molecule, the “secretion of EsxA” value in test [5] is listed as “reduced secretion of EsxA”. Also, in test [6], the “concentration required to reduce the bacterial load below the initial amount on day 0” value stood at 10 µM. Also, the “concentration with significant decrease of bacterial load as compared to the DMSO control” value in [6] came to 3 µM. The “increased susceptibility as compared to the parent WT strain” value in test [14] is reported as “at least 4 fold”. The “susceptibility on overexpression of ethA” value in [15] is listed as “did not render this strain susceptible”.
